Laboratory results as given in patent US12679820B2, “Cocrystals, pharmaceutical compositions thereof, and methods of treatment involving same” (Servier Pharmaceuticals LLC, priority 2017, dated 2026).
Like-named read-outs stand apart in the source and are kept apart here. Blank lines part the entries; values can stand above or below the compound they belong to.

Columns and labels:
[1] = Pharmacokinetics of Compound 1 solid forms in plasma following single PO administration (IV bolus reference) in male Sprague Dawley rats; assay type: in vivo; conditions: for AUC(0-inf) / bioavailability: male, rat; for AUC(0-inf) / bioavailability / AUCinf: plasma; for bioavailability: read-out: Absolute % F; for AUCinf: oral gavage 10 mg/kg (as free Compound 1); for AUCinf / Absolute % F: 10 mg/kg; for Absolute % F: oral gavage 10 mg/kg
Method: Study Design. Twelve (12) male Sprague Dawley rats (purchased from SLAC Laboratory Animal Co. LTD were randomized into four groups (3 animals per group). The animals were fasted overnight, the forms of Compound 1 shown in Table 24 were administered by oral gavage, and the animals were fed 4 hours post-dose. Each form of Compound 1 was administered as a suspension in water containing 0.5% microcrystalline cellulose and 0.1% Tween 80. The Dose Levels and Dose Concentrations shown in Table 24 are based on the corresponding amount of free Compound 1.
Blood Collection. Blood was serially collected from each animal 0.083 hr, 0.25 hr, 0.5 hr, 1 hr, 2 hr, 4 hr, 8 hr, 24 hr, 48 hr, and 72 hrs post-dose. For each collection, the animal was restrained manually, and approximately 150 μL of blood sample was collected via the tail vein into K2EDTA tubes. The blood samples were put on ice and centrifuged at 2000 g for 5 min to obtain plasma. Plasma samples were stored at approximately −70° C. until analysis.
To enable the calculation of oral bioavailability, Compound 1 was dissolved in a vehicle containing 10% N-Methyl-2-pyrrolidone (NMP), 10% Solutol HS 15, and 80% saline and administered at 1 mg/kg as intravenous (IV) bolus dose to a separate group of male Sprague-Dawley rats, and blood samples were collected at similar time points to those shown above. Further, plasma samples were obtained from the collected blood samples and stored at approximately −70° C. until analysis.
Further, the amorphous solid dispersion of Compound 1, as described in Example 23, was suspended in an aqueous vehicle containing 0.5% methyl cellulose (MC) and 0.2% Tween80 at 0.2 mg/mL concentration and dosed at 1 mg/kg as a single oral dose to a separate group of male Sprague-Dawley rats after an overnight fasting. Blood samples were collected at similar time points to those shown above. Further, plasma was harvested and stored at approximately −70° C. until analysis.
Sample Preparation and Analysis. The concentration of Compound 1 in the plasma samples was determined by LC-MS/MS analysis.
A 20 μL aliquot of each sample was diluted with 200 μL of acetonitrile containing dexamethasone as an internal standard (40 ng/mL). The resulting mixture was vortexed for 2 min and centrifuged at 5800 rpm for 10 min. A 2 μL sample was injected into LC-MS/MS.
Results. Historical data for IV administration of Compound 1 and administration of Compound 1 as a spray dried dispersion are also provided in Table 26. The absolute bioavailability of each form of Compound 1 was determined by dividing the AUCinf of the form in question by the AUCinf obtained by IV administration of Compound 1 and correcting for differences in dose. The measured absolute bioavailability of the citrate and maleate cocrystals, as reported in Table 26, was higher than the measured bioavailability of the other forms of Compound 1.

[2] = Hygroscopicity by Dynamic Vapor Sorption (DVS) analysis; assay type: physicochemical; conditions: for water uptake at 80% relative humidity / hygroscopicity: DVS at 25° C.; for water uptake at 80% relative humidity: range 0-95% relative humidity; for form change after DVS analysis (XRPD of the remaining material): XRPD after DVS at 25° C., 0-95% relative humidity
Method: Dynamic Vapor Sorption (DVS) Analysis. DVS was measured via a SMS (Surface Measurement Systems) DVS Intrinsic. The relative humidity at 25° C. were calibrated against deliquescence point of LiCl, Mg(NO3)2 and KCl. [table] The hygroscopicity of the cocrystal was determined by DVS analysis at 25° C., over a range of 0-95% relative humidity. […]

[3] = tested on: mutant IDH1; conditions: biochemical and cellular assays; cited from earlier work
[4] = tested on: mutant IDH2; conditions: biochemical and cellular assays; cited from earlier work
[5] = listed as Citric Acid Cocrystal Type A
[6] = male Sprague Dawley rats, fasted
[7] = male Sprague Dawley rats, vs IV AUCinf, dose-corrected
[8] = listed as Maleic Acid Cocrystal Type A

AUC(0-inf) ([1]; Sprague Dawley, po, 11.7 mg/kg, oral gavage 11.7 mg/kg (as free Compound 1), male Sprague Dawley rats, fasted): 58200 ng·h/mL | bioavailability ([1]; Sprague Dawley, po, 11.7 mg/kg, oral gavage 11.7 mg/kg, male Sprague Dawley rats, vs IV AUCinf, dose-corrected): 104% | bioavailability (in words) ([1]; summary statement referring to the Examples): favorable bioavailability | water uptake at 80% relative humidity [2, 5]: 0.5% | hygroscopicity [2, 5]: slightly hygroscopic | hygroscopicity ([2]; listed as citric acid cocrystal type A): low hygroscopicity | form change after DVS analysis (XRPD of the remaining material) [2]: no form change had occurred
Compound: C[C@@H](Nc1nc(N[C@H](C)C(F)(F)F)nc(-c2cccc(Cl)n2)n1)C(F)(F)F [Citrate Cocrystal Type A]

AUC(0-inf) ([1]; Sprague-Dawley, iv, 1 mg/kg, IV bolus 1 mg/kg, male Sprague-Dawley rats, historical data): 4800 ng·h/mL | bioavailability ([1]; Sprague-Dawley, iv, 1 mg/kg, IV bolus 1 mg/kg, male Sprague-Dawley rats, historical data (reference)): 100%
Compound: C[C@@H](Nc1nc(N[C@H](C)C(F)(F)F)nc(-c2cccc(Cl)n2)n1)C(F)(F)F [Compound 1, 6-(6-chloropyridin-2-yl)-N^2,N^4-bis((R)-1,1,1-trifluoropropan-2-yl)-1,3,5-triazine-2,4-diamine]
inhibitor of mutant IDH1 protein [3]: inhibitor | inhibitor of mutant IDH2 protein [4]: inhibitor

AUCinf [1, 6]: 30698 ng·h/mL | Absolute % F [1, 7]: 63.9%
Compound: C[C@@H](Nc1nc(N[C@H](C)C(F)(F)F)nc(-c2cccc(Cl)n2)n1)C(F)(F)F [Free Form A]

AUCinf [1, 6]: 10846 ng·h/mL | Absolute % F [1, 7]: 22.6%
Compound: C[C@@H](Nc1nc(N[C@H](C)C(F)(F)F)nc(-c2cccc(Cl)n2)n1)C(F)(F)F [Free Form C]

AUCinf [1, 6]: 38625 ng·h/mL | Absolute % F [1, 7]: 80.4% | water uptake at 80% relative humidity [2, 8]: 2.0% | hygroscopicity [2, 8]: slightly hygroscopic | form change after DVS analysis (XRPD of the remaining material) [2]: no form change had occurred
Compound: C[C@@H](Nc1nc(N[C@H](C)C(F)(F)F)nc(-c2cccc(Cl)n2)n1)C(F)(F)F [Maleate Cocrystal Type A]
